What is called pEC50 is −log10 of the EC50, conventionally taken in molar units.

The structures appear in SMILES notation. pEC50, pIC50: −log10 of the molar value. Where two headings read alike, the source gives them in different places.

In series [1] the test system is HeLa cells (cervical carcinoma). Put plainly: MTT cytotoxicity test on adherent HeLa cells. It counts as cell-based, human. To be noted: for cytotoxicity, times greater in relation to the salt Fh3P^+C5H11 I^-: HeLa cells after 48 h; for pIC50: Homo sapiens, HeLa. The method, then:
(§1) Compound 1, where R = ethyl, X = I (formula 1a) and the compound 1 where R = n-octyl, and X = I (formula 1b, were tested for cytotoxic properties on two representatives of human tumor cells: adherent HeLa cells (cervical carcinoma) and suspension K562 cells (chronic myelogenous leukemia). The cytotoxicity of the test compounds was determined with the MTT test in which the yellow tetrazolium salt is reduced by dehydrogenase in the mitochondria of living cells into a purple formazan. 1.HeLa or K562 cells were seeded in 96-well plates in the amount of seven thousand cells/well in 200 µL of culture medium. Cells were incubated overnight in an incubator (37 °C, 5% CO2) 2. The tested compound was added to the cells to yield the following final concentrations in the cell culture: 1 mM, 10 µM, 100 nM, 1 nM. Cells treated with 1% DMSO served as the control with 100% viability. 3. After 24 h or 48 h incubation of HeLa or K562 cells with test compounds, 25 µL of MTT (5 mg / mL) was added to each well. MTT, a yellow tetrazolium salt is reduced to purple formazan by mitochondrial dehydrogenases of living cells, the quantity of which can be determined spectrophotometrically. Cells were incubated with MTT for two hours in an incubator (37 ° C, 5% CO2). Next, lysis buffer containing SDS and DMF was added (95 µL / well). Cells were lysed overnight at 37 ° C, 5% CO2. 4. The absorbance of each well was read on FLUOstar Omega reader at the wave length of 570 and 650 nm. The absorbance measured at 570 nm is proportional to the number of viable cells. The viability of the cells was calculated for each concentration of the test compound. The IC50 values were read from the dose - viability plots by interpolation to 50% cell survival. 5.The results indicating the strong toxicity of both, compound 1a and compound 1b to the adherent HeLa cells and suspension K562 cells are shown in Tables 1 and 2.
(§2) The compound of formula 1c was tested for cytotoxic properties on two human cell lines using the MTT assay (yellow tetrazolium salt transformed by dehydrogenase in the mitochondria of living cells into the purple formazan). The tests were performed on HeLa (cervical carcinoma) and K562 (chronic myelogenous leukemia) cells.
(§3) (Experimental protocol as in Example I).
For orientation: Tetrazolium dyes change colour on reduction, which living cells bring about.

The subject of series [2] is K562 cells (chronic myelogenous leukemia). Put plainly: MTT cytotoxicity test on suspension K562 cells. It counts as cell-based, human. To be noted: for fold decrease of IC50 after 48 h compared to IC50 after 24h: K562 cells; for cytotoxicity, times greater in relation to the salt Fh3P^+C5H11 I^-: K562 cells after 48 h. The method, then:
as §1, §2, §3

In series [3] the test system is cervical carcinoma HeLa cells and chronic myelogenous leukemia K562 cells. Put plainly: MTT cytotoxicity, summary ranges over HeLa and K562 cells. It counts as cell-based. To be noted: Homo sapiens, read-out: IG50 (the source's name). The method, then:
as §1, with “After 24 h or 48 h incubation of HeLa or K562 cells with test compounds, 25 µL of MTT (5 mg / mL) was added to each well.” left out

Series [4] relates to cervical carcinoma cells (HeLa). To be noted: after 24 h, PL395749; cited from earlier work.
In the next series the test system is K562 cells. Conditions: K562, 24 h; PL395749; cited from earlier work.
The subject of a further series is K562 and HeLa cells. To be noted: PL395749, cited from earlier work.
For another series, the system named is HeLa cells. Conditions: read-out: cytotoxicity EC50; cited from earlier work.
Where [5] appears, read: Homo sapiens, K562, 24 h, read-out: IC50.
Setting [6] is: Homo sapiens, K562, 48 h, read-out: IC50.

Regarding `CCCCCCCCCC[P+](c1ccccc1)(c1ccccc1)c1ccccc1.[I-]` [Compound 1a, n-decyltriphenylphosphonium iodide], the “cytotoxicity, times greater in relation to the salt Fh3P^+C5H11 I^-” value in series [1] is given as 12-15 times; in series [2] it was 12 times. Besides, the pIC50 in series [1] (24h, read-out: IC50) is 5.15; in series [1] (48h, read-out: IC50) it was 5.30; in series [2] (setting [5]), 5.52; in series [2] (setting [6]), 6.30; in series [3] (after 4 h (so in the source)), 5.15 to 5.70; in series [3] (after 48 hrs), 5.30 to 6.30. Further, the “fold decrease of IC50 after 48 h compared to IC50 after 24h” value in series [2] is reported as “six”.
For the compound `CCCCCCCCCCCCCCCC[P+](c1ccccc1)(c1ccccc1)c1ccccc1.[I-]` [Compound 1b, triphenyl-n-hexadecylphosphonium iodide], the “cytotoxicity, times greater in relation to the salt Fh3P^+C5H11 I^-” value is listed as 12-15 times in series [1] and 12 times in series [2]. In addition, the pIC50 in series [1] (24h, read-out: IC50) is 5.30; in series [1] (48h, read-out: IC50) it was 5.40; in series [2] (setting [5]), 5.70; in series [2] (setting [6]), 6.30; in series [3] (after 4 h (so in the source)), 5.15 to 5.70; in series [3] (after 48 hrs), 5.30 to 6.30. The “fold decrease of IC50 after 48 h compared to IC50 after 24h” value in series [2] is recorded as “four”.
As for `BrCc1ccc(-c2ccc(C[P+](c3ccccc3)(c3ccccc3)c3ccccc3)cc2)cc1` [Compound 1c], the pIC50 in series [1] (48 h (Table 2, compound 1c), read-out: IC50 48 h) is 4.52; in series [2] (Homo sapiens, K562, 48 h, K562, 48 h (Table 2, compound 1c), read-out: IC50 48 h), 5.22; in series [2] (K562, 48 h (Table 2, compound 1c), read-out: IC50 48 h) it was 5.30.
Regarding `CCCCC[P+](c1ccccc1)(c1ccccc1)c1ccccc1` [Compound C5], the pIC50 is 4.05 in series [4]; 4.30 with K562 cells; 4.05 to 4.30 in the series on K562 and HeLa cells (after 24 h); 4.22 to 5.22 in the series on K562 and HeLa cells (second value for C5, printed after 24 h).
With `CCCCCCCCCCCCCC[P+](CCCCCC)(CCCCCC)CCCCCC.O=S(=O)([N-]S(=O)(=O)C(F)(F)F)C(F)(F)F` [tri-n-hexyl(tetradecyl)phosphonium bis(trifluoromethylsulfonyl) imide], in the series on HeLa cells, the pEC50 was 4.10.

Values taken from patent publication EP3124027A1, “TRIPHENYLPHOSPHONIUM SALTS FOR USE IN CANCER THREAPY” (Centrum Badan Molekularnych I Makromolekularnych Polskiej …, priority 2015, dated 2017).
